Assay results published in patent publication US20240287080A1 (IDEAYA Biosciences Inc., priority 2021, published 2024).

target: T1, Pol theta (1-899) (Homo sapiens, UniProt O75417); experiment: Pol theta ATPase activity, NADH oxidation-coupled enzymatic assay (ATPase NADH coupling: Standard Screening: hPolQ); assay type: biochemical; conditions: Pol theta (1-899) 5 nM, NADH oxidation-coupled ATPase assay; compounds of Table 3
T1 construct: Pol theta (1-899) (5 nM) in assay buffer
In short: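 Rates of ATP hydrolysis taken from 60-min A340 traces of NADH oxidation via PK/LDH coupling, then fit four-parameter for IC50, Hill slope and max inhibition. Enzyme (5 nM, 1-899) and compounds preincubated 15 min before ATP 100 μM and 50-thymine ssDNA 300 nM (stock, equal volume added).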

T1 sequence (O75417 1-899): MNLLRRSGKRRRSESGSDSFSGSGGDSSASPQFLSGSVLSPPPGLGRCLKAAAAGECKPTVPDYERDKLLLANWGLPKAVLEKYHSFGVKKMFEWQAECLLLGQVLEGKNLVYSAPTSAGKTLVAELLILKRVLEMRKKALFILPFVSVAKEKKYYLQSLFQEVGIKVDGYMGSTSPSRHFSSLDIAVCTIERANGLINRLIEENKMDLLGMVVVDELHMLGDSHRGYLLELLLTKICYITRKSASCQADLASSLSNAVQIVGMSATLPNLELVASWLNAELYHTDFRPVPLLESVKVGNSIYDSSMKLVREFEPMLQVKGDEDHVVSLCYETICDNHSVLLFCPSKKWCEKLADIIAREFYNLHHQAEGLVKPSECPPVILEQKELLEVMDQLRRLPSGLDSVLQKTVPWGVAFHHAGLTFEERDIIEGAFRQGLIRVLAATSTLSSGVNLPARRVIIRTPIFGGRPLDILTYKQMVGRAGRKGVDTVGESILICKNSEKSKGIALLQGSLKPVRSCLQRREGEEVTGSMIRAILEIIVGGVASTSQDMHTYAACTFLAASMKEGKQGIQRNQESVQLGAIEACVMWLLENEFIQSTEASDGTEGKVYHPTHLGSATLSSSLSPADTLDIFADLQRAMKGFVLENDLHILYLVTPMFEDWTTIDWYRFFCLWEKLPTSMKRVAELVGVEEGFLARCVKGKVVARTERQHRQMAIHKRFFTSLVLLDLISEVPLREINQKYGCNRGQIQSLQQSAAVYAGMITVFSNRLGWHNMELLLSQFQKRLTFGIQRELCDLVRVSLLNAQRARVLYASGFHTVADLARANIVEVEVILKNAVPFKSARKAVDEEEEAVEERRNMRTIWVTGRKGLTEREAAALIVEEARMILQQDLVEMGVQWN

SMILES | IC50
COc1nnc(NC(=O)c2ccncc2-c2cc(Cl)ncc2OC)s1 [Example 259, 2′-chloro-5′-methoxy-N-(5-methoxy-1,3,4-thiadiazol-2-yl)-[3,4′-bipyridine]-4-carboxamide] | ≤ 200 nM
COc1cnc(Cl)cc1-c1cc(C)ncc1C(=O)Nc1nnc(OC2CCCN(C3COC3)C2)s1 (stereo not drawn) [Example 250, 2′-chloro-5′-methoxy-6-methyl-N-(5-((1-(oxetan-3-yl)piperidin-3-yl)oxy)-1,3,4-thiadiazol-2-yl)-[4,4′-bipyridine]-3-carboxamide] | ≤ 200 nM

The next lines start with the values.

IC50 | SMILES
≤ 200 nM | COc1nnc(NC(=O)c2ccc(F)cc2-c2cc(Cl)ncc2OC)s1 [Example 266, 2-(2-chloro-5-methoxypyridin-4-yl)-4-fluoro-N-(5-methoxy-1,3,4-thiadiazol-2-yl)benzamide]
1000 to 10000 nM | COc1nnc(NC(=O)c2cnc(C)cc2-c2ccc(S(=O)(=O)N(C)C)cc2)s1 [Example 382, 4-[4-(dimethylsulfamoyl)phenyl]-N-(5-methoxy-1,3,4-thiadiazol-2-yl)-6-methylpyridine-3-carboxamide]
1000 to 10000 nM | COc1nnc(NC(=O)c2cnc(C)cc2-c2cccnc2)s1 [Example 331, N-(5-methoxy-1,3,4-thiadiazol-2-yl)-6′-methyl-[3,4′-bipyridine]-3′-carboxamide]
500 to 1000 nM | COc1nnc(NC(=O)c2cnc(C)cc2-c2cccc(F)c2)s1 [Example 421, 4-(3-fluorophenyl)-N-(5-methoxy-1,3,4-thiadiazol-2-yl)-6-methylpyridine-3-carboxamide]
≤ 200 nM | COc1cnc(Cl)cc1-c1cc(C)ncc1C(=O)Nc1nnc(O[C@H]2CO[C@H]3OCC[C@H]32)s1 [Example 262, 2′-chloro-N-(5-(((3R,3aS,6aR)-hexahydrofuro[2,3-b]furan-3-yl)oxy)-1,3,4-thiadiazol-2-yl)-5′-methoxy-6-methyl-[4,4′-bipyridine]-3-carboxamide]
1000 to 10000 nM | COc1cc(C)c(-c2cc(C)ncc2C(=O)Nc2nnc(OC)s2)cn1 [Example 463, 6-methoxy-N-(5-methoxy-1,3,4-thiadiazol-2-yl)-4,6′-dimethyl-[3,4′-bipyridine]-3′-carboxamide]
≤ 200 nM | COc1cnc(Br)cc1-c1cc(C)ncc1C(=O)Nc1nnc(O[C@H]2CCC[C@H](O)C2)s1 [Example 271, 2′-bromo-N-(5-(((1S,3S)-3-hydroxycyclohexyl)oxy)-1,3,4-thiadiazol-2-yl)-5′-methoxy-6-methyl-[4,4′-bipyridine]-3-carboxamide]
≤ 200 nM | COc1cnc(Br)cc1-c1cc(C)ncc1C(=O)Nc1nnc(O[C@H]2CC[C@H](CO)CC2)s1 [Example 315, 2′-bromo-N-(5-(((1r,4r)-4-(hydroxymethyl)cyclohexyl)oxy)-1,3,4-thiadiazol-2-yl)-5′-methoxy-6-methyl-[4,4′-bipyridine]-3-carboxamide]
1000 to 10000 nM | COc1nnc(NC(=O)c2cnc(C)cc2-c2ccc(F)cc2)s1 [Example 368, 4-(4-fluorophenyl)-N-(5-methoxy-1,3,4-thiadiazol-2-yl)-6-methylpyridine-3-carboxamide]
1000 to 10000 nM | COc1nnc(NC(=O)c2cnc(C)cc2-c2ccnc(C)c2)s1 [Example 404, N-(5-methoxy-1,3,4-thiadiazol-2-yl)-2′,6-dimethyl-[4,4′-bipyridine]-3-carboxamide]
1000 to 10000 nM | CNC(=O)c1cccc(-c2cc(C)ncc2C(=O)Nc2nnc(OC)s2)c1 [Example 343, N-(5-methoxy-1,3,4-thiadiazol-2-yl)-6-methyl-4-[3-(methylcarbamoyl)phenyl]pyridine-3-carboxamide]
1000 to 10000 nM | COc1nnc(NC(=O)c2cnc(C)cc2-c2cccc(S(=O)(=O)N(C)C)c2)s1 [Example 396, 4-[3-(dimethylsulfamoyl)phenyl]-N-(5-methoxy-1,3,4-thiadiazol-2-yl)-6-methylpyridine-3-carboxamide]
1000 to 10000 nM | COc1nnc(NC(=O)c2cnc(C)cc2-c2ccc(OC(F)(F)F)cc2)s1 [Example 376, N-(5-methoxy-1,3,4-thiadiazol-2-yl)-6-methyl-4-[4-(trifluoromethoxy)phenyl]pyridine-3-carboxamide]
500 to 1000 nM | COc1nnc(NC(=O)c2cnc(C)cc2-c2ccc3c(cnn3C)c2)s1 [Example 449, N-(5-methoxy-1,3,4-thiadiazol-2-yl)-6-methyl-4-(1-methyl-1H-indazol-5-yl)pyridine-3-carboxamide]
1000 to 10000 nM | COc1nnc(NC(=O)c2cnc(C)cc2-c2ccoc2)s1 [Example 390, 4-(furan-3-yl)-N-(5-methoxy-1,3,4-thiadiazol-2-yl)-6-methylpyridine-3-carboxamide]
1000 to 10000 nM | CNC(=O)c1ccc(-c2cc(C)ncc2C(=O)Nc2nnc(OC)s2)cc1 [Example 402, N-(5-methoxy-1,3,4-thiadiazol-2-yl)-6-methyl-4-[4-(methylcarbamoyl)phenyl]pyridine-3-carboxamide]

same assay, conditions: Table 4; Pol theta (1-899) 5 nM, ATP, dT50 ssDNA

IC50 | SMILES
≤ 200 nM | COc1nnc(NC(=O)c2cnc(C)cc2-c2cc(Cl)ncc2C)s1 [Example 39, 2′-chloro-N-(5-methoxy-1,3,4-thiadiazol-2-yl)-5′,6-dimethyl-(4,4′-bipyridine)-3-carboxamide]
≤ 200 nM | COc1cnc(Cl)cc1-c1cc(C)ncc1C(=O)Nc1nnc(OC2CC2)s1 [Example 7, 2′-chloro-N-(5-cyclopropoxy-1,3,4-thiadiazol-2-yl)-5′-methoxy-6-methyl-(4,4′-bipyridine)-3-carboxamide]
≤ 200 nM | COc1cnc(Cl)c(F)c1-c1cc(C)ncc1C(=O)Nc1nnc(OC2COC2)s1 [Example 60, 2′-chloro-3′-fluoro-5′-methoxy-6-methyl-N-(5-(oxetan-3-yloxy)-1,3,4-thiadiazol-2-yl)-(4,4′-bipyridine)-3-carboxamide]
≤ 200 nM | COc1cnc(Cl)cc1-c1cc(C)ncc1C(=O)Nc1nnc(O[C@H]2CC[C@H](O)C2)s1 [Example 45, 2′-chloro-N-(5-(((1s,3s)-3-hydroxycyclopentyl)oxy)-1,3,4-thiadiazol-2-yl)-5′-methoxy-6-methyl-(4,4′-bipyridine)-3-carboxamide]

SMILES | IC50
COc1cnc(Cl)cc1-c1cc(C)ncc1C(=O)Nc1nnc(OC2CCC2)s1 [Example 11, 2′-chloro-N-(5-cyclobutoxy-1,3,4-thiadiazol-2-yl)-5′-methoxy-6-methyl-(4,4′-bipyridine)-3-carboxamide] | ≤ 200 nM

same assay, conditions: Table 5; Pol theta (1-899) 5 nM, ATP, dT50 ssDNA

IC50 | SMILES
≤ 200 nM | COc1cnc(Br)cc1-c1cc(C)ncc1C(=O)Nc1nnc(O[C@H]2CC[C@H](O)CC2)s1 [Example 194, 2′-bromo-N-(5-(((1r,4r)-4-hydroxycyclohexyl)oxy)-1,3,4-thiadiazol-2-yl)-5′-methoxy-6-methyl-(4,4′-bipyridine)-3-carboxamide]
≤ 200 nM | COc1cnc(Cl)cc1-c1cc(C)ncc1C(=O)Nc1nnc(O[C@@H]2CCC[C@@H](OC)C2)s1 (single isomer, unassigned) [Example 148]
≤ 200 nM | COc1cnc(Cl)cc1-c1cc(C)ncc1C(=O)Nc1nnc(O[C@H]2CCC[C@H](OC)C2)s1 (single isomer, unassigned) [Example 147]
≤ 200 nM | COc1cnc(Cl)cc1-c1cc(C)ncc1C(=O)Nc1nnc(O[C@@H]2CCC23COC3)s1 (single isomer, unassigned) [Example 137]
≤ 200 nM | COc1cnc(Cl)cc1-c1cc(C)ncc1C(=O)Nc1nnc(O[C@@H]2COC3(CC3)C2)s1 (single isomer, unassigned) [Example 228]
≤ 200 nM | COc1cnc(Cl)c(F)c1-c1cc(C)ncc1C(=O)Nc1nnc(O[C@@H]2CCC[C@@H](O)C2)s1 (single isomer, unassigned) [Example 157]
≤ 200 nM | COc1cnc(C)c(F)c1-c1cc(C)ncc1C(=O)Nc1nnc(O[C@@H]2CCOC2)s1 [Example 206]
≤ 200 nM | COc1cnc(Cl)cc1-c1cc(C)ncc1C(=O)Nc1nnc(O[C@@H]2CCC[C@H](OC)C2)s1 (single isomer, unassigned) [Example 146]
≤ 200 nM | COc1cnc(C)c(F)c1-c1cc(C)ncc1C(=O)Nc1nnc(O[C@H]2COC3(CC3)C2)s1 (single isomer, unassigned) [Example 208]
≤ 200 nM | COc1cnc(Cl)c(F)c1-c1cc(C)ncc1C(=O)Nc1nnc(O[C@@H]2CCC[C@H](O)C2)s1 (single isomer, unassigned) [Example 155]
≤ 200 nM | COc1cnc(Cl)cc1-c1cc(C)ncc1C(=O)Nc1nnc(O[C@H]2COC(C)(C)C2)s1 (single isomer, unassigned) [Example 131]
≤ 200 nM | COc1cnc(Cl)cc1-c1cc(C)ncc1C(=O)Nc1nnc(O[C@@H]2CC[C@H]2O)s1 (single isomer, unassigned) [Example 118]

SMILES | IC50
COc1cnc(Cl)cc1-c1cc(C)ncc1C(=O)Nc1nnc(O[C@H]2C[C@H](O)C2(C)C)s1 (single isomer, unassigned) [Example 184, 2′-chloro-N-(5-((1r,3r)-3-hydroxy-2,2-dimethylcyclobutoxy)-1,3,4-thiadiazol-2-yl)-5′-methoxy-6-methyl-(4,4′-bipyridine)-3-carboxamide] | ≤ 200 nM

same assay, conditions: Table 5; values given as bound; Pol theta (1-899) 5 nM, ATP, dT50 ssDNA

IC50 | SMILES
> 10000 nM | COc1nnc(NC(=O)c2cn(-c3cc(Cl)ncc3OC)nn2)s1 [Example 234, 1-(2-chloro-5-methoxypyridin-4-yl)-N-(5-methoxy-1,3,4-thiadiazol-2-yl)-1H-1,2,3-triazole-4-carboxamide]
> 10000 nM | COc1nnc(NC(=O)c2cn(C)nc2-c2cc(Cl)ncc2OC)s1 [Example 110, 3-(2-chloro-5-methoxypyridin-4-yl)-N-(5-methoxy-1,3,4-thiadiazol-2-yl)-1-methyl-1H-pyrazole-4-carboxamide]
> 10000 nM | COc1nnc(NC(=O)c2ccn(-c3cc(Cl)ncc3OC)n2)s1 [Example 235, 1-(2-chloro-5-methoxypyridin-4-yl)-N-(5-methoxy-1,3,4-thiadiazol-2-yl)-1H-pyrazole-3-carboxamide]
